Structures are written as SMILES.

This data set is described as follows: gradient 5% acetonitrile 3 min, to 50% in 2 min, to 85% in 15 min, held 3 min, 100 µL/min. The note with it: column: Zorbax Extend-C18 2.1 x 50 mm; eluents: water / acetonitrile, 0.1% formic acid. In outline:
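Retention time was recorded from adduct peaks, which were picked computationally and each inspected manually. Pure standards ran in mixtures of ~100 molecules on HPLC coupled to a quadrupole time-of-flight mass spectrometer, in positive and negative ionization mode, through a Zorbax Extend-C18 column (2.1 × 50 mm, 1.8 μm) at 100 μL/min. Eluents were water and acetonitrile, each with 0.1% formic acid.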
`CC(C)(C)c1cc(NCc2ccccn2)n2ncc(-c3ccc(Cl)cc3)c2n1` returned an RP-LC retention time of 841 s.

`COC(=O)c1ccccc1NC(=O)Cn1c(N2CCCC2)nc(C)cc1=O`: the RP-LC retention time worked out at 612 s. On to `Cc1cccc(-c2nc(C3CCN(S(=O)(=O)c4cc(C)ccc4C)CC3)no2)c1`, for which the RP-LC retention time came out at 1320 s. The figure for `Fc1ccc(-c2nnc(Cc3nc(-c4cccc(Br)c4)no3)o2)cc1` is 1090 s; for `Cc1ccc(C)c2c(=O)c3c([nH]c12)CCN(CC(=O)Nc1ccccc1Cl)C3` it is 656 s.

Compound `CC(C)Sc1ccc(CC(=O)NCC2CCN(C(=O)c3ccccc3F)CC2)cc1` registered an RP-LC retention time of 833 s. In the case of `O=C(Nc1cccc(Cl)c1)C(=O)c1cn(CC(=O)N2CCCC2)c2ccccc12`, the RP-LC retention time stood at 1020 s. The figure for `CCc1ccc(OCC(=O)N2CCCCC2CCN2CCCCC2)cc1` (stereo not drawn) is 703 s; for `CC(C)NC(=O)C1CCN(S(=O)(=O)c2cc(-c3noc(C4CCC4)n3)cs2)CC1` it is 913 s; for `CN1C(=O)c2[nH]nc(-c3ccccc3)c2C1c1cccnc1` (stereo not drawn) it is 609 s. The figure for `O=C(Nc1ccc2c(c1)OCCO2)C1CCCN(c2ncc(-c3cccc(F)c3)cn2)C1` (stereo not drawn) is 1040 s; for `COC(=O)C1=CN(c2ccc(F)cc2)c2cc(F)ccc2S1(=O)=O` it is 789 s; for `COC(=O)c1ccc2c(C(C)=O)c[nH]c2c1` it is 642 s. The value for `Cc1cc(NC(=O)C2CCCN(c3cnc4nccnc4c3)C2)ccc1F` (stereo not drawn) was 769 s; that for `COCc1noc(C2CN(C(=O)c3ccc(Cl)s3)CC23CCCC3)n1` (stereo not drawn) was 962 s. In turn, `Cc1nnc(N2CCCC(C(=O)NCc3ccccc3F)C2)c2nn(-c3ccccc3)c(C)c12` (stereo not drawn) registered an RP-LC retention time of 722 s. The figure for `CN(C)C(=O)c1cc2c(s1)CCC(C(=O)NC1CCCCC1)C2` (stereo not drawn) is 748 s; for `Cc1cccc2nc(-c3ccccc3)c(Nc3ccc4c(c3)OCCO4)n12` it is 679 s; for `CCN1CCN(CCCNC(=O)CCCN2C(=O)COc3ccc(C)cc32)CC1` it is 585 s.

Regarding `Cc1cc2c(cc1S(=O)(=O)N1CCCC1C(=O)N1CCN(c3ccccc3)CC1)OC(C)C(=O)N2` (stereo not drawn), the RP-LC retention time stood at 814 s. The figure for `Cc1ccc(C)c(NC(=O)N2CCC(OC3CCN(S(C)(=O)=O)CC3)CC2)c1` is 771 s; for `O=C(Cn1cnc2nc(N3CCCC(C(=O)NC4CC4)C3)sc2c1=O)NCCC1=CCCCC1` (stereo not drawn) it is 722 s. The value for `Cc1cc(C)cc(Nc2nc(C)cc3nn(CC(=O)N(C)c4ccccc4)c(=O)n23)c1` was 1160 s; that for `CC1CCCCN1CCNC(=O)CN1CCN(C(=O)Nc2ccc(Br)cc2)CC1=O` (stereo not drawn) was 610 s. The value for `CN1CCCc2cc(C(CNC(=O)C(=O)Nc3ccc4c(c3)OCO4)N3CCCCC3)ccc21` (stereo not drawn) was 718 s. In turn, `O=C(Cc1cccc2ccccc12)Nc1c(-c2ccccc2)nc2ccccn12` displayed an RP-LC retention time of 708 s. The value for `COCCN1C(=O)[C@H]2CN(Cc3ccc(OC(F)(F)F)cc3)C[C@H]2C1=O` was 694 s. The figure for `CCOC(=O)c1nc(N2CCN(c3ccccc3OC)CC2)c2ccccc2n1` is 809 s; for `COc1ccccc1OCCN1C(=O)C(NC(C)=O)c2ccccc21` (stereo not drawn) it is 666 s; for `CC1CCC(NC(=O)C2CCCN(C(=O)c3cc(-c4cccnc4)n[nH]3)C2)CC1` (stereo not drawn) it is 636 s. `Cn1nc(-c2ccsc2)nc1C1CN(S(=O)(=O)c2cccnc2)C1` gave an RP-LC retention time of 712 s. The figure for `CCn1cc(-c2ccccc2)cc1C(=O)NCC(C)C` is 1070 s; for `O=C(CSc1nnc(-c2cccnc2)o1)c1ccc2c(c1)OCCO2` it is 715 s; for `O=C(Cn1ccn2nc(-c3ccc(F)cc3)c(CO)c2c1=O)NCc1ccc2c(c1)OCO2` it is 778 s. The value for `CCOC(=O)c1c(C)oc2nc(C)nc(NCCN(Cc3ccccc3)C(C)C)c12` was 735 s; that for `CC(C)(C)NC(=O)c1ccc2c(c1)CCCN2S(=O)(=O)c1ccccc1` was 979 s. Take `CCOCCCNC(=O)NC1CCN(c2nc3ccccc3n(C)c2=O)CC1`: the RP-LC retention time worked out at 690 s. With `Cn1nc2c(c1NC(=O)c1ccc([N+](=O)[O-])s1)CCC2`, the RP-LC retention time worked out at 698 s. The figure for `Cn1cnc(S(=O)(=O)N2CCOc3ccc(NC(=O)C4CC4)cc3C2)c1` is 658 s. As to `Cc1oc(-c2[nH]ncc2C(=O)N2CCCC2)cc1S(=O)(=O)NCc1ccc(F)cc1F`, the RP-LC retention time worked out at 710 s.

Consider `COc1ccc(Cn2c(=O)c3sccc3n(Cc3nc(-c4ccc(SC)cc4)no3)c2=O)cc1`, for which the RP-LC retention time was 1160 s. The value for `Cc1ccccc1N1CCN(S(=O)(=O)c2cc(-c3nnc(C4CCC4)o3)co2)CC1` was 1140 s; that for `Cc1cc(Br)ccc1NC(=O)C1CCCN(c2ncnc3c2nc2n3CCCCC2)C1` (stereo not drawn) was 895 s. The figure for `Cc1cc(C(=O)N2CCN(c3ccccc3Cl)CC2)nc2ccnn12` is 875 s; for `COc1ccc(CC(=O)Nc2ccc(-c3nc(Cn4cc(C)cn4)c(C)o3)cc2)cc1` it is 889 s; for `N#Cc1cccc(C(=O)NC2CCN(c3ccc(F)cc3)C2=O)c1` (stereo not drawn) it is 768 s.

Compound `Cc1ccc(S(=O)(=O)N2CCC(n3cnc4c(C)cccc4c3=O)CC2)c(C)c1` gave an RP-LC retention time of 1060 s. The value for `CCCNC(=O)c1nn(-c2ccc(OC)cc2)c(OC)cc1=O` was 661 s; that for `Cc1ccc(-c2nc3cnccn3c2Nc2cccc(C(=O)O)c2)cc1` was 711 s. The value for `CC(=O)N1c2ccc(S(=O)(=O)N3CCCCC3)cc2CC1C(=O)Nc1c(C)cc(C)cc1C` (stereo not drawn) was 955 s; that for `CC(C)Cc1ccc(S(=O)(=O)N(CC(=O)N2CCNCC2)CC2CCCO2)cc1` (stereo not drawn) was 703 s; that for `O=C(Nc1ccc(F)c(F)c1)c1c(O)c2cccnc2n(-c2cccc(F)c2)c1=O` was 1260 s.

In turn, `Cc1cc(C)c(S(=O)(=O)N2CCC(N3CCN(Cc4ccccc4)C(=O)C3=O)CC2)cc1C` yielded an RP-LC retention time of 917 s. The figure for `CN(C)c1cccc(C(=O)N2CCN(C(=O)c3nnn4c3COC(c3ccccc3)C4)CC2)c1` (stereo not drawn) is 799 s. The figure for `O=C(Cc1cccs1)N1CCN(C(=O)c2cc3cc(Br)ccc3[nH]2)CC1` is 866 s; for `CCCCC(=O)Nc1ccc(-c2nc(-c3cc(C)ccc3C)co2)cc1` it is 1280 s. The value for `CCc1ccc(OCc2ccc(C(=O)Nc3nc(-c4ccccc4)cs3)o2)cc1` was 1270 s; that for `Cc1nc(-c2csc(S(=O)(=O)N3CCC(C(=O)Nc4ccccn4)CC3)c2)no1` was 740 s. `COc1ccc(-c2nnc(-c3cccc(S(=O)(=O)N4CCC(C)CC4)c3)o2)cc1` returned an RP-LC retention time of 1110 s. The value for `O=C(NCc1ccccc1F)c1cc(=O)n2c(nc3ccccc32)s1` was 876 s.

For `O=C(Cc1cccc(F)c1)NC1CCN(c2cc(-c3ccc(F)cc3)[nH]n2)C1` (stereo not drawn), the RP-LC retention time turned out to be 716 s. The value for `Cn1nc2n(c1=O)CCC(NC(=O)c1cc(C3CC3)[nH]n1)CC2` (stereo not drawn) was 586 s; that for `Cc1cc2cc(CN3C(=O)c4ccccc4C3=O)ccc2[nH]1` was 866 s; that for `O=C(NCCC1CCN(C(=O)Nc2cc(F)cc(F)c2)CC1)c1ccsc1` was 688 s. The value for `O=C(C1COc2ccccc2O1)N1CCN(Cc2nc3ccccc3[nH]2)CC1` (stereo not drawn) was 578 s; that for `Cc1ccc(Nc2c(-c3ccc(N(C)C)cc3)nc3ccccn23)cc1` was 743 s; that for `CSc1cccc(NC(=O)Cn2cccc(-c3nc(-c4ccccc4)no3)c2=O)c1` was 911 s. The figure for `COCCc1nncn1C1CCN(C(=O)c2cc(Cl)ccc2F)CC1` is 657 s; for `O=C(NCc1cccc(Cl)c1)C1CC(=O)N(c2n[nH]c3cccc(F)c23)C1` (stereo not drawn) it is 749 s; for `CCCc1nc(NCc2ccc3c(c2)OCO3)ncc1C(=O)O` it is 791 s. For `CCC(=O)Nc1ccc(CCc2nc3ccc(C(=O)NCCCOC)cc3[nH]2)cc1`, the RP-LC retention time was determined as 596 s. In the case of `CCCCN(CCCNC(=O)c1cc(C)nn1-c1ccccc1)Cc1ccccc1`, the RP-LC retention time worked out at 656 s. The figure for `O=C(CN1C(=O)C2CCCCN2c2ccc(C(=O)N3CCCC3)cc21)Nc1ccc2c(c1)OCO2` (stereo not drawn) is 794 s; for `CC(C)(C)NC(=O)N1CCC2(CC1)CC(Cc1nc(-c3cnccn3)no1)CCO2` (stereo not drawn) it is 720 s; for `COc1ccc(Cl)cc1NC(=O)Cn1cc2c(n1)CCCC2` it is 1020 s. The value for `CCOc1ccc(-c2noc(Cc3nnc(-c4ccc(C)c(C)c4)o3)n2)cc1` was 1200 s; that for `CCOC(=O)CNC(=O)N1CCCC1c1ccc(OC)cc1` (stereo not drawn) was 728 s; that for `COc1ccc(CNC2=NCCNC23CCN(S(=O)(=O)c2ccc(CC(C)C)cc2)CC3)cc1` was 878 s.
